Reference: article PMC9468336, “The choanoflagellate pore-forming lectin SaroL-1 punches holes in cancer cells by targeting the tumor-related glycosphingolipid Gb3” (Communications Biology, 2022)
Read-outs that look alike come from different tables or passages of the source.

Legend:
[1] = target: T1, hemolytic activity of SaroL-1 on rabbit erythrocytes (Salpingoeca rosetta, UniProt F2UID9); assay: Inhibition of hemolytic activity (IHA) of SaroL-1 by carbohydrates; format: cell-based; details: for inhibition: SaroL-1 217 nM, read-out: Mean % inhibition of hemolysis
T1 sequence (F2UID9 1-329): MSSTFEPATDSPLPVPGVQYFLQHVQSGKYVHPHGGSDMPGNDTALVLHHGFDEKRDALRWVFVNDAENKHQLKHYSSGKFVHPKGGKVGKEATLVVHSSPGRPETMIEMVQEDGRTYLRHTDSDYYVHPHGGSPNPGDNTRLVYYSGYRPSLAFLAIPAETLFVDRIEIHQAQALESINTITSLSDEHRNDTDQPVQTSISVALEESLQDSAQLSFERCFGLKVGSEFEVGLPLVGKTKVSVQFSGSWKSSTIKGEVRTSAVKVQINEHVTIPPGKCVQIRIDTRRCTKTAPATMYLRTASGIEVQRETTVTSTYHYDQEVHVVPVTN
Protocol: (§1) Both HA and IHA assays were performed in U-shaped 96-well microtiter plates. In both cases, a control negative experiment was performed with Buffer A added to erythrocyte solution (2% final concentration), and the resulting value was subtracted from all data.
(§2) IHA was performed in U-shaped 96-well microtiter plates. […] 4% rabbit erythrocytes were added to the mixture in a 1:1 ratio and incubated for 1–2 h at 37 °C. The samples were centrifuged, 2600 × g for 15 min at RT, and the absorbance of the supernatant was measured at 540 nm by a Tecan reader.

SaroL-1 [2] = target: T2, SaroL-1 (Salpingoeca rosetta, UniProt F2UID9); assay: Isothermal titration calorimetry (MicroCal iTC200) at 25 °C in 20 mM Tris/HCl pH 7.5, 100 mM NaCl, ligand titrated into SaroL-1, one-site model with stoichiometry N fixed to 3.; format: binding
T2 construct: gene PTSG_08235; monomeric in solution
Protocol: Isothermal Titration Calorimetry (ITC)
ITC experiments were performed with MicroCaliTC200 (Malvern Panalytical). Experiments were carried out at 25 °C ± 0.1 °C. SaroL-1 and ligands samples were prepared in Buffer A. The ITC cell contained SaroL-1 in a concentration range from 0.05 mM to 0.16 mM. The syringe contained the ligand solutions in a concentration from 10 to 50 mM. 2 μL of ligands solutions were injected into the sample cell at intervals of 120 s while stirring at 750 rpm. Integrated heat effects were analysed by nonlinear regression using one site binding model (MicroCal PEAQ-ITC Analysis software). The experimental data were fitted to a theoretical curve, which gave the dissociation constant (Kd) and the enthalpy of binding (∆H).

SaroL-1 [3] = target: T2, SaroL-1; assay: Inhibition of SaroL-1 (217 nM) induced hemolysis of rabbit erythrocytes after 1 h pre-incubation of lectin with sugar at RT, then 1-2 h at 37 °C, absorbance of supernatant at 540 nm.; format: cell-based; details: n = 2
Protocol: Hemolytic assay (HA) and inhibition of hemolytic activity (IHA)
as §1, §2

SaroL-1 [4] = assay: Isothermal titration calorimetry of galactosyl-ligands with SaroL-1; format: binding, Salpingoeca rosetta; details: ITC

Structure (SMILES) | inhibition ([1]; sugar 0.003 mM) [%] | inhibition ([1]; sugar 0.006 mM) [%] | inhibition ([1]; sugar 0.0125 mM) [%] | inhibition ([1]; sugar 0.025 mM) [%] | inhibition ([1]; sugar 0.05 mM) [%] | inhibition ([1]; sugar 0.1 mM) [%] | inhibition ([1]; sugar 0.2 mM) [%] | inhibition ([1]; sugar 0.4 mM) [%] | inhibition ([1]; sugar 0.8 mM) [%] | inhibition ([1]; sugar 1.6 mM) [%] | inhibition ([1]; sugar 3.125 mM) [%] | inhibition ([1]; sugar 6.25 mM) [%] | inhibition ([1]; sugar 12.5 mM) [%] | inhibition ([1]; sugar 25 mM) [%] | inhibition ([1]; sugar 50 mM) [%] | Kd (SaroL-1 [2]) [µM] | IC50 (SaroL-1 [3]) [µM] | binding to SaroL-1 (in words) (SaroL-1 [4]) | IC50 ([1]; SaroL-1 217 nM pre-incubated with carbohydrate, read-out: IC50 of inhibition of hemolysis) [µM] | inhibition of hemolysis (in words) ([1]; 10 mM carbohydrate)
CC(=O)N[C@H]1C(O)O[C@H](CO)[C@H](O)[C@@H]1O (stereo partly shown) [GalNAc, N-acetylgalactosamine] | 3.76 | 7.37 | 8.89 | 4 | 2.33 | 6.61 | 6.57 | 9.48 | 14.5 | 27.3 | 42.5 | 64 | 83.1 | 98.8 | 100 | 2760 | 4900 |  |  | 
CO[C@H]1O[C@H](CO)[C@H](O)[C@H](O)[C@H]1O [GalαOMe, α-methyl galactoside] |  |  |  |  |  |  |  |  |  |  |  |  |  |  |  | 2170 |  |  |  | 
OC[C@H]1O[C@@H](O[C@H]2[C@H](O)[C@@H](O)[C@H](O)O[C@@H]2CO)[C@H](O)[C@@H](O)[C@H]1O [Lactose, lactose] |  |  |  |  |  |  |  |  |  |  |  |  |  |  |  |  |  | very weak binding | 11900 | 
OC[C@H]1O[C@H](OCC2O[C@@H](O)[C@H](O)[C@@H](O)[C@@H]2O)[C@H](O)[C@@H](O)[C@H]1O (stereo partly shown) [melibiose] | 0.665 | 2.27 | 3.73 | 7.43 | 7.01 | 9.7 | 15.2 | 22.7 | 36.1 | 54.5 | 76.3 | 91.8 | 100 | 100 | 100 |  |  |  |  | complete inhibition
OC[C@H]1O[C@H](O[C@H]2[C@@H](O)[C@@H](CO)OC(O)[C@@H]2O)[C@H](O)[C@@H](O)[C@H]1O (stereo partly drawn) [αGal1-3Gal, α-D-galactopyranosyl-(1-3)-D-galactose] |  |  |  |  |  |  |  |  |  |  |  |  |  |  |  | 1380 |  |  |  | 
